Patent publication US9783551B2, “Pyranochromenyl phenol derivative, and pharmaceutical composition for treating metabolic syndrome or inflammatory disease” (GLACEUM, INC., priority 2013, dated 2017)
pIC50: −log10 of the molar value.

Legend:
[1] = tested on: DIO mice; experiment: Anti-obesity effect for DIO mice (body weight); format: in vivo, C57BL/6 mice; settings: Mus musculus, 672 h, 4 weeks, oral gavage once daily
Experimental: (§1) Five-week-old female C57BL/6 mice (Narabio Co., Ltd.) were purchased and fed with only high-fat diet for at least 10 weeks to produce diet induced obesity ([…]) mice. Samples were exactly taken from Preparation Example 1 (glabridin) and the compounds of Examples of the present invention (Compounds 1 to 5, 7, 9, 11, 14 to 16, 21, and 23) according to the administration dose and put into Falcon tubes, 3 ml of a 0.5% methyl cellulose aqueous solution was added thereto and a vortex mixer was used to primarily mix the ingredients in a soft manner, and then a homogenizer (30,000 rpm, Ultra-Turrax® T10 Basic, IKA) was used to treat the sample for 3 minutes while 1.5 ml of a 0.5% methyl cellulose aqueous solution was added thereto. The sample thus prepared was administered through oral gavage using a disposable plastic syringe once daily for 28 days (4 weeks). The body weight was measured twice a week while the DIO mice were bred in this manner. Based on the data thus calculated, the anti-obesity effect (%) was calculated according to the equation defined as follows. Anti-Obesity Effect={(Body weight of control group)−(Body weight of experimental group)}/(Body weight of control group)×100

[2] = target: PTP1B (Homo sapiens (Human), UniProt P18031); experiment: Experiment of PTP1B inhibition (p-NPP dephosphorylation); format: biochemical; settings: 2 mM p-NPP substrate, 30° C., 30 minutes
Text: With respect to PTP1B, the degrees of inhibition (IC50 The half maximal inhibitory concentration) of glabridin, and compounds of Preparation Example 2 (Compound 1), Example 2 (Compound 3), Example 3 (Compound 4), Example 4 (Compound 5), Example 13 (Compound 14), Example 14 (Compound 15), Example 15 (Compound 16), Example 17 (Compound 18), Example 18 (Compound 19) and Example 20 (Compound 21) were compared to each other. For this purpose, the degree of inhibition activity for PTP1B was investigated by using 2 mM p-nitrophenyl phosphate (p-NPP) as a substrate to measure the dephosphorylation degree. First, PTP1B diluted with distilled water was reacted with 2 mM p-nitrophenyl phosphate {p-NPP, 0.1 M NaCl, 1 mM EDTA, 50 mM citrate pH 6.0, and 1 mM dithiothreitol (DTT)} and Compound 1 at various concentrations at 30° C. for 30 minutes, and then the reaction was terminated with a 1 N-sodium hydroxide (NaOH) solution. The absorbance of the samples thus prepared was measured to confirm the inhibition degree (IC50: The half maximal inhibitory concentration) for PTP1B activity according to the concentration of Compound 1. Even for glabridin, Compound 3, Compound 4, Compound 5, Compound 14, Compound 15, Compound 16, Compound 18, Compound 19, and Compound 21, the same measurement was performed.

[3] = tested on: DIO mice; experiment: Organ weights and blood biochemistry of DIO mice after 28 days of administration; format: in vivo, C57BL/6 mice
Experimental: as §1
After the experiment was performed for 28 days (4 weeks) as described above, blood was simultaneously taken while the experimental animal was finally sacrificed, and each of the organs (liver, heart, kidney, pancreas, fat tissues and the like) was removed to measure the weight and observe peculiar matters.
In Table 3, { }, ( ) and the like were used in order to differentiate experiments which had been performed at different periods. Experiments without the parenthesis were those simultaneously performed under the same conditions.

[4] = tested on: RAW264.7 macrophages; experiment: RAW264.7 macrophage NO assay (LPS-induced NO production, Griess reagent); format: cell-based
Experimental: (§2) After the pretreatment, the MTT (Sigma, M2128) reagent at a concentration of 0.5 mg/ml was further added thereto. After the cells were cultured in a 5% CO2 incubator for 4 hours, the supernatant was discarded, 150 μl of DMSO was added and was shaken for 30 minutes, and an ELISA micro plate reader (Bio Rad Laboratories Inc., California, USA, Model 680) was used to measure the absorbance at a wavelength of 540 nm. All the experimental values were calculated as an average value of three repeated experimental values of the cell protection rate for the control group, and an experiment of suppressing the NO production for each compound was carried out at a concentration in which no cytotoxicity was shown.
(§3) After the reaction, an ELISA micro plate reader (Bio Rad Laboratories Inc., California, USA, Model 680) was used to measure the absorbance at a wavelength of 540 nm. The suppression rate was calculated as a difference in amount of NO produced between the control group and the experimental group, and as shown in the following Table 7, Compounds 4, 5, 15, 16, 18, and the like of the present invention were excellent in the effect of suppressing the production of NO.

[5] = tested on: BV2 microglia cells; experiment: BV2 cell NO assay (LPS-induced NO production, Griess reagent); format: cell-based; settings: Mus musculus, BV-2, LPS 1 μg/ml, 24 hours
Experimental: as §2, with “pretreatment, 0.5 mg/ml of” for “pretreatment,”, “reagent” for “reagent at a concentration of 0.5 mg/ml”, “incubator,” for “incubator for 4 hours,”
as §3, with “6 and FIG. 6,” for “7,”, “NO, and the effect is also about 5 times to about 9 times better than that of glabridin.” for “NO.”

[6] = 150 mg/kg, experiment without parenthesis

Sequence of PTP1B (P18031 whole entry, species assumed): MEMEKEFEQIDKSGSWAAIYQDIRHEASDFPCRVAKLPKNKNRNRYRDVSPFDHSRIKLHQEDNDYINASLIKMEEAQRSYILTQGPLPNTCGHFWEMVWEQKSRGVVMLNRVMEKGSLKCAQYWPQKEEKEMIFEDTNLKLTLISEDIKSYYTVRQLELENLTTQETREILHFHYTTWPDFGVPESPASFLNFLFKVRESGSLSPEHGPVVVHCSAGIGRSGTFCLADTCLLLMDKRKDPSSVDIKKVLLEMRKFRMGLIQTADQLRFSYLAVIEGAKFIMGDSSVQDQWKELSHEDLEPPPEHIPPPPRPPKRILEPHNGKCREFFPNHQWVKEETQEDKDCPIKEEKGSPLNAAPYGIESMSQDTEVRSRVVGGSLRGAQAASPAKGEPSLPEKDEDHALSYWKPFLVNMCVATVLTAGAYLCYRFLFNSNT

**Q.** `CC1(C)CCc2c(ccc3c2OC[C@@H](c2ccc(O)cc2O)C3)O1` [Compound 1, 3″,4″-dihydroglabridin] was tested. Which inhibition in vivo at 150 mg/kg [1] did it give?
**A.** 8%

**Q.** And the pIC50 [2]?
**A.** 4.34

**Q.** What about the “ALT (U/L)” value [3, 6] of the same molecule?
**A.** 34 U/L

**Q.** And the “AST (U/L)” value [3, 6]?
**A.** 93 U/L

**Q.** What about the BMI [3, 6] of the same molecule?
**A.** 3.8

**Q.** And the “FFA (μEq/L)” value [3, 6]?
**A.** 1400 μEq/L

**Q.** And the “Fat (g), weight of fat removed around the epididymis and the kidney” value (“Fat (g), weight” below) [3, 6]?
**A.** 2.07 g

**Q.** What about the “LDL” value [3, 6] of the same molecule?
**A.** 11 mg/dL

**Q.** What about the “Liver (g), weight of liver” value [3, 6] of the same molecule?
**A.** 1.24 g

**Q.** How did the inhibition in vivo at 200 mg/kg [1] turn out when `CC1(C)CCc2c(ccc3c2OCC(c2ccccc2O)C3)O1` (stereo not shown) [Compound 2, 3-(2-hydroxyphenyl)-8,8-dimethyl-2,3,4,8,9,10-hexahydropyrano [2,3-f] chromene] was run?
**A.** 8%

**Q.** Which inhibition in vivo at 200 mg/kg [1] does the source give for `Cc1ccc(C2COc3c(ccc4c3CCC(C)(C)O4)C2)c(O)c1` (stereo not shown) [Compound 3, 3-(2-hydroxy-4-methylphenyl)-8,8-dimethyl-2,3,4,8,9,10-hexahydropyrano [2,3-f] chromene] here?
**A.** 19%

**Q.** What about the pIC50 [2] of the same molecule?
**A.** 5.15

**Q.** What about the “ALT (U/L)” value ([3]; 200 mg/kg, { } experiment) of the same molecule?
**A.** {73} U/L

**Q.** And the “AST (U/L)” value ([3]; 200 mg/kg, { } experiment)?
**A.** {152} U/L

**Q.** What about the BMI ([3]; 200 mg/kg, { } experiment) of the same molecule?
**A.** {3.5}

**Q.** And the “FFA (μEq/L)” value ([3]; 200 mg/kg, { } experiment)?
**A.** {2390} μEq/L

**Q.** And the “Fat (g), weight” value ([3]; 200 mg/kg, { } experiment)?
**A.** {1.62} g

**Q.** What about the “LDL (mg/dL)” value ([3]; 200 mg/kg, { } experiment) of the same molecule?
**A.** {22} mg/dL

**Q.** What about the “Liver (g), weight of liver” value ([3]; 200 mg/kg, { } experiment) of the same molecule?
**A.** {1.53} g

**Q.** How did the inhibition in vivo at 150 mg/kg [1] turn out when `CCCCc1ccc(C2COc3c(ccc4c3CCC(C)(C)O4)C2)c(O)c1` (stereo not shown) [Compound 7, 3-(2-hydroxy-4-butylphenyl)-8,8-dimethyl-2,3,4,8,9,10-hexahydropyrano [2,3-f] chromene] was run?
**A.** 14%

**Q.** With `COCCc1ccc(C2COc3c(ccc4c3CCC(C)(C)O4)C2)c(O)c1` (stereo not shown) [Compound 9, 3-(2-hydroxy-4-(2-methoxyethyl)phenyl)-8,8-dimethyl-2,3,4,8,9,10-hexahydropyrano [2,3-f] chromene] as the molecule, how does the inhibition in vivo at 150 mg/kg [1] read?
**A.** 10%

**Q.** With `Cc1cc(O)c(C2COc3c(ccc4c3CCC(C)(C)O4)C2)cc1C` (stereo not shown) [Compound 11, 3-(2-hydroxy-4,5-dimethylphenyl)-8,8-dimethyl-2,3,4,8,9,10-hexahydropyrano [2,3-f] chromene] as the molecule, how does the inhibition in vivo at 150 mg/kg [1] read?
**A.** 8%

**Q.** What does the source list for `COc1ccc(C2COc3c(ccc4c3CCC(C)(C)O4)C2)c(O)c1` (stereo not shown) [Compound 14, 3-(2-hydroxy-4-methoxyphenyl)-8,8-dimethyl-2,3,4,8,9,10-hexahydropyrano [2,3-f] chromene]?
**A.** inhibition in vivo at 150 mg/kg [1]: 12%; pIC50 [2]: 5.19; ALT (U/L) [3, 6]: 51 U/L; AST (U/L) [3, 6]: 131 U/L; BMI [3, 6]: 3.9; FFA (μEq/L) [3, 6]: 2160 μEq/L; Fat (g), weight of fat removed around the epididymis and the kidney [3, 6]: 2.23 g; LDL [3, 6]: 13 mg/dL; Liver (g), weight of liver [3, 6]: 1.19 g

**Q.** With `CCCCOc1ccc(C2COc3c(ccc4c3CCC(C)(C)O4)C2)c(O)c1` (stereo not shown) [Compound 18, 3-(2-hydroxy-4-butoxyphenyl)-8,8-dimethyl-2,3,4,8,9,10-hexahydropyrano [2,3-f] chromene] as the molecule, how does the pIC50 ([4]; Mus musculus, RAW264.7, NO production, LPS 1 μg/ml, 24 hours) read?
**A.** 5.25

**Q.** And the “effect of suppressing the production of NO” value ([4]; RAW264.7 macrophages, in words)?
**A.** excellent

**Q.** What about the pIC50 [5] of the same molecule?
**A.** 5.55

**Q.** What about the pIC50 [2] of the same molecule?
**A.** 5.47

**Q.** With `CCCCCOc1ccc(C2COc3c(ccc4c3CCC(C)(C)O4)C2)c(O)c1` (stereo not shown) [Compound 19, 3-(2-hydroxy-4-n-pentoxyphenyl)-8,8-dimethyl-2,3,4,8,9,10-hexahydropyrano [2,3-f] chromene] as the molecule, how does the pIC50 [2] read?
**A.** 5.92

**Q.** For `COCOc1ccc(C2COc3c(ccc4c3CCC(C)(C)O4)C2)c(O)c1` (stereo not shown) [Compound 21, 3-(2-hydroxy-4-(methoxymethoxy)phenyl)-8,8-dimethyl-2,3,4,8,9,10-hexahydropyrano [2,3-f] chromene], which inhibition in vivo at 150 mg/kg [1] is on record?
**A.** 16%

**Q.** And the pIC50 [2]?
**A.** 5.64

**Q.** And the “ALT (U/L)” value [3, 6]?
**A.** 46 U/L

**Q.** And the “AST (U/L)” value [3, 6]?
**A.** 104 U/L

**Q.** And the BMI [3, 6]?
**A.** 3.6

**Q.** And the “FFA (μEq/L)” value [3, 6]?
**A.** 1520 μEq/L

**Q.** And the “Fat (g), weight” value [3, 6]?
**A.** 2.13 g

**Q.** And the “LDL” value [3, 6]?
**A.** 12 mg/dL

**Q.** And the “Liver (g), weight of liver” value [3, 6]?
**A.** 1.11 g

**Q.** `CCC1(CC)CCc2c(ccc3c2OCC(c2ccc(OC)cc2O)C3)O1` (stereo not shown) [Compound 23, 3-(2-hydroxy-4-methoxyphenyl)-8,8-diethyl-2,3,4,8,9,10-hexahydropyrano [2,3-f] chromene] was tested. Which inhibition in vivo at 200 mg/kg [1] did it give?
**A.** 11%
